The source of these data is ChEMBL document CHEMBL1201862, “PubChem BioAssay data set” (2004).

Each structure is given as a SMILES string.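 Cells were grown in 96-well plates and exposed to each compound for 48 hours at five concentrations; endpoints were interpolated linearly between bracketing concentrations, or set to the highest concentration if not reached. GI50 = concentration required for 50% inhibition of growth.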 Activity calls are given as the source filed them. No stated cut-off is given here; in the data, active = GI50 up to about 1.1 µM and inactive = higher.

Some test systems named below: SF-295; UO-31; T47D; SF-268; HOP-92; DU-145; SW-620; SNB-75; MDA-MB-231; SF-539; SK-MEL-2; CCRF-CEM; RXF 393; SK-MEL-5; TK-10; NCI/ADR-RES; UACC-257; OVCAR-5; KM12; A498.
Holding throughout (experiment): DTP human tumour cell line panel, 48 h

For the compound `CC(C)(CO)CNc1nc(N)nc(Cl)c1/C=N/O`, the GI50 – broadly, the concentration at which growth is held to half of that of the control – in the experiment with SF-295 was 14.1 µM (inactive); in the experiment with UO-31, 17.3 µM (inactive); in the experiment on T47D it was 4.31 µM (inactive); in the experiment with SF-268 it was 8.91 µM (inactive); in the experiment with HOP-92, 19.7 µM (inactive); with DU-145, 31.4 µM (inactive). The GI50 with SW-620 is 82.6 µM (inactive); in the experiment on SNB-75 it was 50.9 µM (inactive); in the experiment on MDA-MB-231, 25.8 µM (inactive); in the experiment with SF-539, 30.6 µM (inactive); with SK-MEL-2, 39.7 µM (inactive); with CCRF-CEM it was 23 µM (inactive). Besides, the GI50 was 22.2 µM (inactive) in the experiment with RXF 393; 5.78 µM (inactive) in the experiment with SK-MEL-5; 35 µM (inactive) in the experiment with TK-10; 41.6 µM (inactive) in the experiment with NCI/ADR-RES; 36.1 µM (inactive) in the experiment with UACC-257; 41.2 µM (inactive) with OVCAR-5. For the same compound, the GI50 with KM12 was 84.5 µM (inactive); with A498 it was 23.9 µM (inactive).

Regarding `COC(=O)C1=C(C=O)C2C=CC1C2` (stereo not given), the GI50 in the experiment on SF-295 is > 100 µM (inactive); in the experiment on UO-31 it was > 100 µM (inactive); in the experiment with T47D, > 100 µM (inactive); with SF-268, > 83.4 µM (inactive); with HOP-92, > 100 µM (inactive); in the experiment with DU-145 it was > 100 µM (inactive). The GI50 in the experiment on SW-620 is 43.6 µM (inactive); with SNB-75, 28.6 µM (inactive); in the experiment on MDA-MB-231, > 100 µM (inactive); with SF-539 it was > 100 µM (inactive); in the experiment with SK-MEL-2 it was > 100 µM (inactive); in the experiment on CCRF-CEM, 25.1 µM (inactive). Besides, the GI50 in the experiment with RXF 393 was 81.5 µM (inactive); in the experiment on SK-MEL-5, > 100 µM (inactive); with TK-10, 53.8 µM (inactive); in the experiment on NCI/ADR-RES it was > 100 µM (inactive); in the experiment on UACC-257, 47.9 µM (inactive); in the experiment on OVCAR-5 it was > 100 µM (inactive). Further, the GI50 with KM12 and in the experiment on A498 was > 100 µM (inactive) each time.

Take `O=C(c1cccc(F)c1F)N1CCc2c([nH]c3ccccc23)C1c1ccc2c(c1)OCO2` (stereo not given): the GI50 was 3.09 µM (inactive) in the experiment on SF-295; 10.9 µM (inactive) in the experiment with UO-31; 10.6 µM (inactive) in the experiment on T47D; 27.3 µM (inactive) with SF-268; 26.5 µM (inactive) with HOP-92; 18.2 µM (inactive) in the experiment on DU-145. Further, the GI50 in the experiment on SW-620 was 9.71 µM (inactive); in the experiment on SNB-75, 1.99 µM (inactive); with MDA-MB-231 it was 7.87 µM (inactive); in the experiment with SF-539, 4.79 µM (inactive); with SK-MEL-2, 4.2 µM (inactive); in the experiment on CCRF-CEM, 5.83 µM (inactive). Further, the GI50 with RXF 393 is 4.99 µM (inactive); with SK-MEL-5, 3.63 µM (inactive); in the experiment on TK-10, 22.5 µM (inactive); in the experiment with NCI/ADR-RES, 5.56 µM (inactive); with UACC-257, 11.2 µM (inactive); with OVCAR-5, 30.1 µM (inactive). For the same compound, the GI50 in the experiment with KM12 was 4.92 µM (inactive); in the experiment with A498, 7.55 µM (inactive).

Regarding `CCOC(=O)c1c(-c2ccc(OC)cc2)c(C#N)c(=S)n(C2OC(CO)C(O)C(O)C2O)c1C` (stereo not given), the GI50 in the experiment with SF-295, with UO-31, in the experiment with T47D, in the experiment on SF-268, in the experiment with HOP-92 and with DU-145 was > 100 µM (inactive) each time. Besides, the GI50 in the experiment on SW-620, in the experiment on SNB-75, in the experiment on MDA-MB-231, with SF-539, with SK-MEL-2 and in the experiment on CCRF-CEM was > 100 µM (inactive) throughout. Further, the GI50 in the experiment on RXF 393, with SK-MEL-5, with TK-10, in the experiment on NCI/ADR-RES, in the experiment on UACC-257 and with OVCAR-5 was > 100 µM (inactive) each time. Also, the GI50 in the experiment on KM12 and in the experiment on A498 was > 100 µM (inactive) throughout.

Regarding `CNC(=S)N/N=C(\C)c1cc(OC)ccc1O`, the GI50 in the experiment on SF-295, with UO-31, in the experiment on T47D, in the experiment on SF-268, in the experiment on HOP-92 and with DU-145 was > 100 µM (inactive) each time. The GI50 was > 100 µM (inactive) in the experiment on SW-620; > 95.3 µM (inactive) in the experiment on SNB-75; > 100 µM (inactive) with MDA-MB-231; > 100 µM (inactive) with SF-539; > 100 µM (inactive) with SK-MEL-2; > 27.9 µM (inactive) with CCRF-CEM. For the same compound, the GI50 in the experiment on RXF 393 is > 100 µM (inactive); in the experiment with SK-MEL-5 it was > 44.3 µM (inactive); in the experiment with NCI/ADR-RES it was 28.6 µM (inactive); with UACC-257, > 100 µM (inactive); in the experiment on OVCAR-5, > 100 µM (inactive); with KM12 it was > 100 µM (inactive). Moreover, in the experiment with A498, the GI50 is > 100 µM (inactive).

With `Cc1csc2c1C(=O)c1ccsc1C2=O`, the GI50 in the experiment with SF-295 was 1.59 µM (inactive); in the experiment on UO-31, 2.87 µM (inactive); in the experiment with T47D, 2.2 µM (inactive); in the experiment with SF-268, 2.96 µM (inactive); with HOP-92, 3.56 µM (inactive); in the experiment on DU-145 it was 1.88 µM (inactive). The GI50 was 2.47 µM (inactive) with SW-620; 1.97 µM (inactive) in the experiment with SNB-75; 2.35 µM (inactive) in the experiment with MDA-MB-231; 2.01 µM (inactive) in the experiment on SF-539; 2.03 µM (inactive) with SK-MEL-2; 4.03 µM (inactive) with CCRF-CEM. Moreover, the GI50 was 3.21 µM (inactive) in the experiment with RXF 393; 0.589 µM (active) with SK-MEL-5; 19.1 µM (inactive) in the experiment with TK-10; 1.87 µM (inactive) with NCI/ADR-RES; 1.52 µM (inactive) in the experiment on UACC-257; 1.96 µM (inactive) with OVCAR-5. The figures for the GI50 in the experiment on KM12 and in the experiment on A498 were 2.96 µM (inactive) and 18.2 µM (inactive), respectively.

Take `C=C(C)C(=O)O[C@H]1C[C@@]23O[C@@H]2CCC(=C[C@H]2OC(=O)C(=C)[C@H]12)COC3O` (stereo not given in full): the GI50 is > 100 µM (inactive) with SF-295; 35.4 µM (inactive) in the experiment with T47D; > 100 µM (inactive) in the experiment on SF-268; 21.9 µM (inactive) in the experiment with HOP-92; > 100 µM (inactive) in the experiment with DU-145; 17.9 µM (inactive) in the experiment on SW-620. The GI50 in the experiment on SNB-75 is > 100 µM (inactive); in the experiment with MDA-MB-231 it was > 100 µM (inactive); in the experiment with SF-539 it was > 100 µM (inactive); in the experiment on SK-MEL-2, 70.3 µM (inactive); in the experiment on CCRF-CEM, 17.2 µM (inactive); with RXF 393, 25.1 µM (inactive). Further, the GI50 is > 100 µM (inactive) in the experiment with SK-MEL-5; > 100 µM (inactive) in the experiment with TK-10; 44.6 µM (inactive) with NCI/ADR-RES; > 100 µM (inactive) in the experiment on UACC-257; > 100 µM (inactive) in the experiment on OVCAR-5; > 100 µM (inactive) with KM12. For the same compound, the GI50 with A498 was > 100 µM (inactive).

With `COc1ccc(N2C(=O)C3c4[nH]c5ccccc5c4C4c5ccccc5CC4C3C2=O)cc1` (stereo not given), the GI50 in the experiment with SF-295, in the experiment with UO-31, with T47D, in the experiment on SF-268, with HOP-92 and in the experiment on DU-145 was > 100 µM (inactive) throughout. Further, the GI50 with SW-620, in the experiment with SNB-75, with MDA-MB-231, in the experiment on SF-539, in the experiment on SK-MEL-2 and in the experiment on CCRF-CEM was > 100 µM (inactive) throughout. Also, the GI50 with RXF 393, in the experiment with TK-10, in the experiment with NCI/ADR-RES, with UACC-257, with OVCAR-5 and with KM12 was > 100 µM (inactive) each time. The GI50 in the experiment on A498 is > 100 µM (inactive).

With `CN(C)c1cccc2c(S(=O)(=O)NCCN)cccc12` [DANSYL ETHYLENEDIAMINE], the GI50 with SF-295 was > 100 µM (inactive); with UO-31 it was 98.9 µM (inactive); in the experiment on T47D, > 100 µM (inactive); in the experiment on SF-268, > 100 µM (inactive); with HOP-92, > 100 µM (inactive); in the experiment with DU-145, > 100 µM (inactive). In addition, the GI50 in the experiment on SW-620 is > 100 µM (inactive); with SNB-75, 4.74 µM (inactive); in the experiment with MDA-MB-231 it was > 100 µM (inactive); in the experiment on SF-539, > 100 µM (inactive); in the experiment with SK-MEL-2, > 100 µM (inactive); in the experiment on CCRF-CEM, > 100 µM (inactive). Also, the GI50 with RXF 393 was 41.1 µM (inactive); with SK-MEL-5, 46.2 µM (inactive); in the experiment on NCI/ADR-RES it was > 100 µM (inactive); in the experiment with UACC-257 it was > 100 µM (inactive); in the experiment on OVCAR-5, > 100 µM (inactive); in the experiment on KM12, > 100 µM (inactive). For the same compound, the GI50 with A498 is 23 µM (inactive).

With `Cc1nc2cn3c(c2c(=O)[nH]1)CCCCC3`, the GI50 in the experiment on SF-295, in the experiment on UO-31, in the experiment with T47D, with SF-268, with HOP-92 and in the experiment on DU-145 was > 100 µM (inactive) throughout. The GI50 with SW-620 was > 100 µM (inactive); in the experiment with SNB-75 it was > 100 µM (inactive); with MDA-MB-231, 28.2 µM (inactive); with SF-539 it was > 100 µM (inactive); with SK-MEL-2 it was > 100 µM (inactive); in the experiment with CCRF-CEM, > 100 µM (inactive). In addition, the GI50 in the experiment with RXF 393, in the experiment on SK-MEL-5, in the experiment on TK-10, in the experiment on NCI/ADR-RES, in the experiment on UACC-257 and with KM12 was > 100 µM (inactive) each time. Besides, the GI50 in the experiment on A498 is > 100 µM (inactive).
